Reference: patent publication US6017886A, “Use of NDF peptide as growth factor for sensory epithelium” (Amgen Inc., priority 1999, dated 2000)

Experiments:
Type in all cases: cell-based
[1] = system: utricular epithelium from seven day-old rats; test: BrdU incorporation (mitogenic activity) in primary culture of infant rat utricular sensory epithelium; settings: for number of BrdU-positive nuclei per piece of epithelium: 50 ng/ml, seventy-two hours culture, infant (seven day-old) rat epithelium, control 50±7
Description: (§1) Sensory edithelial cells obtained from utricles in the inner ear of both seven day-old (infant) rats and six week-old (adult) rats were isolated with the use of thermolysin treatment; see Corwin et al., Abstracts of the Association for Research in Otolaryngology, Volume 18, page 87 (1995). All edges were trimmed away and the central portion of the epithelium was cut into quarters. Epithelial cells from the infant rats were cultured in DMEM/F12 with 10% FBS (Gibco BRL, Grand Island, N.Y.), and 3 micrograms per milliliter (μg/ml) of mitosis tracer BrdU (Aldrich Chemicals, Milwaukee, Wis.) for seventy-two hours, with or without 50 nanograms per milliliter (ng/ml) of the peptide of SEQ ID NO: 1 or 50 ng/ml of recombinant derived FGF-10, recombinant derived FGF-16, recombinant derived ciliary-derived neurotrophic factor (CNTF), recombinant derived neurotrophic growth facor (NGF), recombinant derived glial-derived neurotrophic factor (GDNF), recombinant derived keratinocyte growth factor (KGF), or a control (no growth factor present). The experiment was ended by fixing in 4% paraformaldehyde for one hour.
After several washes, the explants were immunostained for calretinin (a vestibular organ hair cell marker) using rabbit antiserum (SWant Swiss Antibodies, Belinzona, Switzerland), diluted 1:10,000. The secondary antibody was goat anti-rabbit immunoglobulin conjugated to biotin, diluted 1:1,000. Extensive washes were followed by incubating the explants with egg white avidin conjugated to Cy3, diluted 1:1,000. The explants were fixed again with paraformaldehyde as described above, then processed for BrdU immunostaining (a measure of cell proliferation) using standard immunostaining protocols. The mouse monoclonal ant-BrdU antibody was obtained from Caltag Laboratories of San Franscisco, Calif. The secondary antibody, a goat anti-mouse conjugated to FITC, was obtained from Antibodies, Inc. of Davis, Calif.

[2] = system: adult rat utricular epithelium; test: BrdU incorporation (mitogenic activity) in primary culture of adult rat utricular sensory epithelium; settings: adult (six week-old) rat, thirteen days culture, factor added for the last five days, BrdU last two days
Description: as §1
For the adult rats, the total time for cell culture was thirteen days, with the peptide of SEQ ID NO: 1 or other growth factor being added for the last five days and the BrdU ([…]) for the last two days. The experiment was ended as above by fixing the explants in paraformaldehyde. […]

[3] = system: young rat utricular sensory epithelial cells; test: Comparison with other NDF/heregulins, BrdU-positive nuclei in primary culture; settings: 50 ng/ml, FIG. 5
Description: as §1
After several washes, the explants were immunostained for calretinin (a vestibular organ hair cell marker) using rabbit antiserum (SWant Swiss Antibodies, Belinzona, Switzerland), diluted 1:10,000. […]

[4] = system: utricular cell line derived from a transgenic mouse; test: Cell proliferation by ELISA for BrdU in established utricular cell line; settings: 50 ng/ml added twenty-four hours prior to fixation, BrdU final sixteen hours
Description: An established utricular cell line was derived from a transgenic mouse, using the procedure described by Gu et al. in Abstracts of the Association for Research in Otolaryngology, Volume 21, page 16 (1998). The cell line was cultured at 37° C. for three days in DMEM/F12 (Gibco BRL), containing N2 supplement (Sigma Chemical Company, St. Louis, Mo.) in a proportion of 1:100, under conditions restricting oncogene expression. For the treated group, fifty nanograms per milliliter of the peptide of SEQ ID NO: 1 were added twenty-four hours prior to fixation. Three micrograms per milliliter of BrdU (Aldrich Chemicals) were added for the final sixteen hours.
Cell proliferation was measured by ELISA for BrdU. Briefly, cells were fixed with 4% paraformaldehyde (Amersham, Life Sciences, Cleveland, Ohio) for one hour at room temperature. After treatment with 2N HCl for twenty minutes, the cells were washed and then sequentially incubated for one hour with a monocolonal antibody against BrdU (Caltag Laboratories) and horse anti-mouse antibody conjugated to biotin (Vector Laboratories, Burlingame, Calif.). After washing, the cells were further incubated with Europium streptavidin (Wallac Inc., Gaithersburg, Md.) diluted 1:1,000 and processed for time-resolved fluorescence in accordance with the manufacturer's recommendations. The signal was read on a Victor 1420 multi-label counter (Wallac Inc.).

| Substance | number of BrdU-positive nuclei per piece of epithelium [1] | presence of BrdU-positive nuclei in supporting cells versus control (untreated) cells ([1]; infant rat sensory epithelium primary culture, FIGS. 4A and 4B) | increase in proliferation of adult rat sensory epithelial cells over the control group [2] [fold] | increase in induction of cell proliferation over the control [3] [fold] | ELISA reading (BrdU) relative to control (untreated) group [4] [times] |
| --- | --- | --- | --- | --- | --- |
| FGF-16: recombinant derived FGF-16 [reference compound] | 100±16 | – | – | – | – |
| NGF: recombinant derived neurotrophic growth facor (NGF) [reference compound] | 50±9 | – | – | – | – |
| SHLVKCAEKEKTFCVNGGECFMVKDLSNPSRYLCKCQPGFTGARCQNYVMAS [SEQ ID NO: 1, hybrid form derived from the EGF-like domains of NDF-α and NDF-β] | 397±33 | very noticeable increase | 32.5 | 29 | 1.7 |
